Test results taken from patent US5273991A, “Imidazole-containing compositions and methods of use thereof analogs of distamycin” (Research Corporation Technologies, Inc., priority 1992, dated 1993).

Tests used:
[1] = tested on: DNAs [calf thymus, poly(dA dT) and poly(dG dC)]; assay: circular dichroism (CD) titration, DNAs together; assay type: binding
Description: The DNA binding properties of the present compounds were assessed by circular dichroism (CD) titration experiments. Methods for CD titration can be found, for example, in Zimmer et al. (1986) Prog. Biophys. Molec. Biol 47, 31. The conformation of DNA can be readily determined by CD experiments, and for B-DNA, characteristic positive and negative Cotton effects are observed at 260 and 245 nm, respectively.
The interaction of Compounds 6-10 to a number of DNAs [calf thymus, poly(dA dT) and poly(dG dC)] were analyzed by CD titration studies. All the CD titration experiments were performed using identical procedures, concentrations of DNA, and increments of drug:DNA ratios (or `r`, i.e. moles of drug to moles of DNA base pairs). Therefore, the differences observed in the CD spectra for the titration of each of the compounds to the polydeoxynucleotides may be directly compared to reflect their DNA binding properties.
All experiments were performed with a continuous flow of nitrogen purging the polarimeter. A 1 mm path length jacketed cell was used and all experiments were done at room temperature. Initially, DNA [0.02 μ moles (base pairs), 130 μL] was placed in the cell and the spectrum of the DNA alone was collected. Aliquots of drug were added and the spectra collected. The drug solutions were 1 mM and amounts of the drug added correspond to a drug to base pair ratio of 0.05, 0.10, 0.15, 0.20, 0.25, 0.30, 0.40, 0.50, 0.60, 0.80, 1.00. The scan parameters were set and standard for all experiments. The spectra were collected from 400 nm to 200 nm. The sensitivity was set at 1 mdeg and the scan speed was set at 20 nm per minute. Three scans were accumulated and automatically averaged by the computer. The λmax and ellipticity (mdeg) for each spectrum were collected from the raw scans and the final plots were smoothed by the noise reduction program on the computer. […] The induced CD band is presumably due to the uv absorption π to π^* transition of the drug in the drug:DNA complex. […] Therefore interaction of these drugs with DNA causes only minor conformational changes in the double helix.

SF-295 = assay: NCI cytotoxicity screen (SRB); assay type: cell-based, human; settings: 48 h; CNS Cancer SF-295
Description: (§1) Compounds 6, 7, 9 and 10 were tested for cytotoxic properties by the National Cancer Institute, Bethesda, Md. The anticancer drug screen utilized a panel of 60 human tumor cell lines organized into subpanels representing leukemia, melanoma, and cancers of the lung, colon, kidney, ovary and central nervous system and is described by Monks et al. (1991) Journal of the National Cancer Institute 83, 757, which is incorporated herein by reference.
(§2) Cell lines were inoculated onto microtiter plates and preincubated for 24-28 hours. 100 μL aliquots of each compound were added to the appropriate microtiter plate wells in each of five 10-fold dilutions starting from a maximum concentration of 10^-4 M in water or DMSO. Cultures were then incubated for an additional 48 hours. Cells were then fixed in situ, followed by staining with sulforhodamine B (SRB), which binds to basic amino acids of cellular macromolecules. The solubilized stain was measured spectrophotometrically to determine relative cell growth or viability in treated and untreated cells. The monoimidazole analogs of Compounds 6, 7, 9 and 10 and the formamido analog corresponding to Compounds 7 and 10 are devoid of activity against the panel of cancer cell lines in Table III.

K-562 = assay: NCI cytotoxicity screen (SRB); assay type: cell-based, human; settings: 48 h; Leukemia K-562
Description: as §1, §2

Molt-4 = assay: NCI cytotoxicity screen (SRB); assay type: cell-based, human; settings: 48 h; Leukemia Molt-4
Description: as §1, §2

HCT-15 = assay: NCI cytotoxicity screen (SRB); assay type: cell-based, human; settings: 48 h; Colon Cancer HCT-15
Description: as §1, §2

SW-620 = assay: NCI cytotoxicity screen (SRB); assay type: cell-based, human; settings: 48 h; Colon Cancer SW-620
Description: as §1, §2

KM12 = assay: NCI cytotoxicity screen (SRB); assay type: cell-based, human; settings: 48 h; Colon Cancer KM12
Description: as §1, §2

NCI-H322M = assay: NCI cytotoxicity screen (SRB); assay type: cell-based, human; settings: 48 h; Non-Small Cell Lung Cancer NCI-H322M
Description: as §1, §2

DMS-273 = assay: NCI cytotoxicity screen (SRB); assay type: cell-based, human; settings: 48 h; Small Cell Lung Cancer DMS-273
Description: as §1, §2

NCI-H460 = assay: NCI cytotoxicity screen (SRB); assay type: cell-based, human; settings: 48 h; Non-Small Cell Lung Cancer NCI-H460
Description: as §1, §2

HOP-62 = assay: NCI cytotoxicity screen (SRB); assay type: cell-based, human; settings: 48 h; Non-Small Cell Lung Cancer HOP-62
Description: as §1, §2

SF-539 = assay: NCI cytotoxicity screen (SRB); assay type: cell-based, human; settings: 48 h; CNS Cancer SF-539
Description: as §1, §2

NCI-H23 = assay: NCI cytotoxicity screen (SRB); assay type: cell-based, human; settings: 48 h; Non-Small Cell Lung Cancer NCI-H23
Description: as §1, §2

NCI-H522 = assay: NCI cytotoxicity screen (SRB); assay type: cell-based, human; settings: 48 h; Non-Small Cell Lung Cancer NCI-H522
Description: as §1, §2

KM20L2 = assay: NCI cytotoxicity screen (SRB); assay type: cell-based, human; settings: 48 h; Colon Cancer KM20L2
Description: as §1, §2

MALME-3M = assay: NCI cytotoxicity screen (SRB); assay type: cell-based, human; settings: 48 h; Melanoma MALME-3M
Description: as §1, §2

HCC-2998 = assay: NCI cytotoxicity screen (SRB); assay type: cell-based, human; settings: 48 h; Colon Cancer HCC-2998
Description: as §1, §2

DMS-114 = assay: NCI cytotoxicity screen (SRB); assay type: cell-based, human; settings: 48 h; Small Cell Lung Cancer DMS-114
Description: as §1, §2

SF-268 = assay: NCI cytotoxicity screen (SRB); assay type: cell-based, human; settings: 48 h; CNS Cancer SF-268
Description: as §1, §2

HT29 = assay: NCI cytotoxicity screen (SRB); assay type: cell-based, human; settings: 48 h; Colon Cancer HT29
Description: as §1, §2

XF498 = assay: NCI cytotoxicity screen (SRB); assay type: cell-based, human; settings: 48 h; CNS Cancer XF498
Description: as §1, §2

EKVX = assay: NCI cytotoxicity screen (SRB); assay type: cell-based, human; settings: 48 h; Non-Small Cell Lung Cancer EKVX
Description: as §1, §2

SMILES	IC50 (SF-295) [µM]	IC50 (K-562) [µM]	IC50 (Molt-4) [µM]	IC50 (HCT-15) [µM]	IC50 (SW-620) [µM]	IC50 (KM12) [µM]	IC50 (NCI-H322M) [µM]	IC50 (DMS-273) [µM]	IC50 (NCI-H460) [µM]	IC50 (HOP-62) [µM]	IC50 (SF-539) [µM]	IC50 (NCI-H23) [µM]	IC50 (NCI-H522) [µM]	IC50 (KM20L2) [µM]	IC50 (MALME-3M) [µM]	IC50 (HCC-2998) [µM]	further results
CN(C)CCNC(=O)c1nc(NC(=O)c2nc(NC(=O)CCCc3ccc(N(CCCl)CCCl)cc3)cn2C)cn1C [Compound 9, N-(N',N'-dimethylaminoethyl)-1-methyl-4-{4-[4,4-bis(2-chloroethyl)aminophenyl-1-butanamido]-1-methylimidazole-2-carboxamido}imidazole-2-carboxamide]	51.9	54.2	71.3	61.3	77.3	60.9	77.6	42.7	43.5	75.5	47.9	67.3	86.6	53.4	56.3	55.1	CD titration result in words ([1]; three polydeoxyribonucleotides, r' up to 0.8): did not produce any notable changes in the CD spectra
CN(C)CCNC(=O)c1nc(NC(=O)c2nc(NC(=O)c3nc(NC(=O)CCCc4ccc(N(CCCl)CCCl)cc4)cn3C)cn2C)cn1C [Compound 10, N-(N',N'-dimethylaminoethyl)-1-methyl-4-{1-methyl-4-[4-(4,4-bis(2-chloroethyl)aminophenyl-1-butanamido)-1-methylimidazole-2-carboxamido]imidazole-2-carboxamido}imidazole-2-carboxamide]	9.74	7.05	3.19	45.3	9.3	24.1	23.9	6.78	6.13	44	6.13	34.8	6.77	8.63	52.7	38.5	binding preference from CD titration ([1]; induced band for poly(dG.dC) vs poly(dA.dT)): binds more strongly to GC rich sequences of DNA; IC50 (DMS-114): 7.49 µM; IC50 (SF-268): 31.3 µM; IC50 (HT29): 51 µM; IC50 (XF498): 5.79 µM; IC50 (EKVX): 87.8 µM
